# Data from US20020103261A1, “Compositions for injection or intravenous administration for the treatment of internal infection or inflammation in humans and animals” (priority 2000, published 2002).
# How the values were obtained:
# [1] = inactive metabolites after enzymatic degradation; cited from earlier work
# [2] = Solubility in lipids; type: physicochemical
Compound,metabolites expired from the lungs in the form of CO2 [1] [%],metabolites excreted in the urine [1],solubility in lipids [2]
"Cc1ccc(C(C)C)c(O)c1 [isopropyl-cresol, 5-methyl-2[1-methylethyl]phenol]",10,,
"Cc1ccc(C(C)C)cc1O [isopropyl-o-cresol, 5-isopropyl-2-methylphenol]",10,approx. 90%,soluble in lipids
